Results taken from article doi:10.1101/839787v1 (bioRxiv, 2019).
Blank lines part the entries; values can stand above or below the compound they belong to. Where a SMILES comes first, the peptide text is derived from it. Bridges are numbered along the chain shown (N, C = ends). Where no end group is shown, it is not given here.

What was measured:
Raw 264 macrophages = assay: Inflammatory response in vitro: LPS-activated macrophages; assay type: cell-based, murine; details: 100 nmol/L peptide
[1] = In vitro stability of peptides in human plasma; assay type: in vitro ADME; details: for main metabolite / main degradation product: Mass Spectrometry
[2] = system: DSS-induced acute colitis; assay: DSS-induced acute ulcerative colitis; assay type: in vivo, C57Bl/6 mice; details: 5% DSS, i.p. days 1, 2, 3, day 8
[3] = system: DSS-induced chronic colitis; assay: DSS-induced chronic; assay type: in vivo, C57Bl/6 mice
[4] = system: TNBS-induced acute colitis; assay: TNBS-induced acute colitis, protective regime; assay type: in vivo, BALB/c mice; details: TNBS 3 mg/mouse, 0.4 mg/kg systemic, n=8
[5] = system: TNBS-induced acute colitis; assay: TNBS-induced acute colitis, curative regime; assay type: in vivo, BALB/c mice; details: TNBS 3 mg/mouse
[6] = system: TNBS-induced chronic colitis; assay: TNBS-induced chronic colitis; assay type: in vivo, Balb/c mice; details: tolerance regime, treatment during first week only; n=8
Aqueous solubility = assay type: physicochemical; details: aqueous buffer solution, observation in words

Compound: Cc1cc(C)c(C[C@@H]2NC(=O)[C@H](CC(N)=O)NC(=O)[C@H](CCCCN)NC(=O)[C@@H](NC(=O)[C@@H]3CCCN3)CSSC[C@@H](C(=O)N[C@@H](CCCCN)C(=O)O)NC(=O)[C@H](CO)NC(=O)[C@H]([C@@H](C)O)NC(=O)[C@H](Cc3ccccc3)NC(=O)[C@H]([C@@H](C)O)NC(=O)[C@H](CCCCN)NC(=O)[C@@H](Cc3c[nH]c4ccccc34)NC(=O)[C@H](Cc3ccccc3)NC2=O)c(C)c1 [Analog 4, [L-Msa5_D-Trp7_L-Thr11]-CST14]
effect on production of TNFα, IL-6 and NO by activated macrophages (Raw 264 macrophages): no effect

Compound: Cc1cc(C)c(C[C@@H]2NC(=O)[C@H](Cc3ccccc3)NC(=O)[C@H](CC(N)=O)NC(=O)[C@H](CCCCN)NC(=O)[C@@H](NC(=O)[C@@H]3CCCN3)CSSC[C@@H](C(=O)N[C@@H](CCCCN)C(=O)O)NC(=O)[C@H](CO)NC(=O)[C@H]([C@@H](C)O)NC(=O)[C@H](Cc3ccccc3)NC(=O)[C@H]([C@@H](C)O)NC(=O)[C@H](CCCCN)NC(=O)[C@@H](Cc3c[nH]c4ccccc34)NC2=O)c(C)c1 [Analog 2]
effect on production of TNFα, IL-6 and NO by activated macrophages (Raw 264 macrophages): no effect

Compound: CCCCCCCC(=O)N1CCC[C@H]1C(=O)N[C@H]1CSSC[C@@H](C(=O)N[C@@H](CCCCN)C(=O)O)NC(=O)[C@H](CO)NC(=O)[C@H]([C@@H](C)O)NC(=O)[C@H](Cc2ccccc2)NC(=O)[C@H]([C@@H](C)O)NC(=O)[C@H](CCCCN)NC(=O)[C@@H](Cc2c[nH]c3ccccc23)NC(=O)[C@H](Cc2ccccc2)NC(=O)[C@H](Cc2c(C)cc(C)cc2C)NC(=O)[C@H](CC(N)=O)NC(=O)[C@H](CCCCN)NC1=O [Analog 5]
main metabolite / main degradation product [1]: peptide 6
increase of stability in serum with respect to the native neuropeptide ([1]; from half-lives in serum): ten-fold
effect on production of TNFα, IL-6 and NO by activated macrophages (Raw 264 macrophages): strikingly reduced
Colon length ([2]; mean of n=8): 8.65 cm
Colon weight ([2]; mean of n=8): 625 mg
Macroscopic score for colon (0-8) ([2]; mean of n=8): 1
Colon weight ([2]; mouse 1): 624 mg
Macroscopic score for colon (0-8) ([2]; mouse 1): 1
Colon length ([2]; mouse 2): 8.7 cm
Colon weight ([2]; mouse 2): 631 mg
Macroscopic score for colon (0-8) ([2]; mouse 2): 1
Colon length ([2]; mouse 3): 9.3 cm
Colon weight ([2]; mouse 3): 581 mg
Macroscopic score for colon (0-8) ([2]; mouse 3): 0
Colon length ([2]; mouse 4): 7.8 cm
Colon weight ([2]; mouse 4): 662 mg
Macroscopic score for colon (0-8) ([2]; mouse 4): 2
Colon length ([2]; mouse 5): 9.2 cm
Colon weight ([2]; mouse 5): 611 mg
Macroscopic score for colon (0-8) ([2]; mouse 5): 0
Colon length ([2]; mouse 6): 8.4 cm
Colon weight ([2]; mouse 6): 597 mg
Macroscopic score for colon (0-8) ([2]; mouse 6): 1
Colon length ([2]; mouse 7): 8.6 cm
Colon weight ([2]; mouse 7): 624 mg
Macroscopic score for colon (0-8) ([2]; mouse 7): 1
Colon length ([2]; mouse 8): 8.1 cm
Colon weight ([2]; mouse 8): 677 mg
Macroscopic score for colon (0-8) ([2]; mouse 8): 2
Lengths (cm) for colons at day 25 after initiation of DSS treatment ([3]; Group 3: DSS+A5 one cycle, mean of 8 mice): 8.24 cm
Lengths (cm) for colons at day 25 after initiation of DSS treatment ([3]; Group 3: DSS+A5 one cycle, mouse 1): 8.15 cm
Lengths (cm) for colons at day 25 after initiation of DSS treatment ([3]; Group 3: DSS+A5 one cycle, mouse 2): 8.78 cm
Lengths (cm) for colons at day 25 after initiation of DSS treatment ([3]; Group 3: DSS+A5 one cycle, mouse 3): 7.86 cm
Lengths (cm) for colons at day 25 after initiation of DSS treatment ([3]; Group 3: DSS+A5 one cycle, mouse 5): 8.77 cm
Lengths (cm) for colons at day 25 after initiation of DSS treatment ([3]; Group 3: DSS+A5 one cycle, mouse 6): 7.24 cm
Lengths (cm) for colons at day 25 after initiation of DSS treatment ([3]; Group 3: DSS+A5 one cycle, mouse 7): 7.02 cm
Lengths (cm) for colons at day 25 after initiation of DSS treatment ([3]; Group 3: DSS+A5 one cycle, mouse 8): 9.14 cm
Lengths (cm) for colons at day 25 after initiation of DSS treatment ([3]; Group 4: DSS+A5 two cycles, mean of 8 mice): 9.64 cm
Lengths (cm) for colons at day 25 after initiation of DSS treatment ([3]; Group 4: DSS+A5 two cycles, mouse 3): 9.85 cm
Lengths (cm) for colons at day 25 after initiation of DSS treatment ([3]; Group 4: DSS+A5 two cycles, mouse 5): 9.34 cm
Lengths (cm) for colons at day 25 after initiation of DSS treatment ([3]; Group 4: DSS+A5 two cycles, mouse 7): 9.61 cm
Lengths (cm) for colons at day 25 after initiation of DSS treatment ([3]; Group 4: DSS+A5 two cycles, mouse 8): 9.15 cm
protection from body weight loss, bloody diarrhea and mortality [4]: significantly protected
effect on clinical signs and survival ([5]; curative regime days 3, 4, 5, i.p. or s.c. 0.4 mg/kg, n=8): significantly effective
effectiveness of oral administration versus i.p. and s.c. ([5]; curative regime, oral): less effective
protection from subsequent expositions to TNBS, tolerance effect [6]: significantly protected
aqueous solubility (Aqueous solubility): soluble

main metabolite / main degradation product [1]: deletion of L-Lys14
Compound: C[C@@H](O)[C@@H]1NC(=O)[C@H](CCCCN)NC(=O)[C@H](Cc2c[nH]c3ccccc23)NC(=O)[C@H](Cc2ccccc2)NC(=O)[C@H](Cc2ccccc2)NC(=O)[C@H](CC(N)=O)NC(=O)[C@H](CCCCN)NC(=O)[C@@H](NC(=O)[C@@H]2CCCN2)CSSC[C@@H](C(=O)N[C@@H](CCCCN)C(=O)O)NC(=O)[C@H](CO)NC(=O)[C@H](CO)NC(=O)[C@H](Cc2ccccc2)NC1=O [Cortistatin, Cortistatin-14, reference compound] (H-PCKNFFWKTFSSCK-OH; disulfide 2-13)

Compound: CCCCCCCC(=O)N1CCC[C@H]1C(=O)N[C@H]1CSSC[C@@H](C(=O)N[C@@H](CCCCN)C(=O)O)NC(=O)[C@H](CO)NC(=O)[C@H]([C@@H](C)O)NC(=O)[C@H](Cc2ccccc2)NC(=O)[C@H]([C@@H](C)O)NC(=O)[C@H](CCCCN)NC(=O)[C@@H](Cc2c[nH]c3ccccc23)NC(=O)[C@H](Cc2c(C)cc(C)cc2C)NC(=O)[C@H](Cc2ccccc2)NC(=O)[C@H](CC(N)=O)NC(=O)[C@H](CCCCN)NC1=O [Analog 3]
effect on production of TNFα, IL-6 and NO by activated macrophages (Raw 264 macrophages): no effect

Compound: Nc1ccc(O)c(C(=O)O)c1 [mesalazine, 5-aminosalycilic acid, reference compound]
protection from subsequent expositions to TNBS, tolerance effect [6]: fully or partially failed

Compound: Cortistatin-29 (QEGAPPQQSARRDRMPCRNFFWKTFSSCK; disulfide 17-28 (inferred); ends not checked; UniProt O00230 77-105, looked up)
Colon length ([2]; mean of n=8): 9.08 cm
Colon weight ([2]; mean of n=8): 621 mg
Macroscopic score for colon (0-8) ([2]; mean of n=8): 0.87
Colon length ([2]; mouse 1): 8.9 cm
Colon weight ([2]; mouse 1): 622 mg
Macroscopic score for colon (0-8) ([2]; mouse 1): 1
Colon length ([2]; mouse 2): 9.1 cm
Colon weight ([2]; mouse 2): 634 mg
Macroscopic score for colon (0-8) ([2]; mouse 2): 1
Colon length ([2]; mouse 3): 9.5 cm
Colon weight ([2]; mouse 3): 578 mg
Macroscopic score for colon (0-8) ([2]; mouse 3): 0
Colon length ([2]; mouse 4): 8.4 cm
Colon weight ([2]; mouse 4): 655 mg
Macroscopic score for colon (0-8) ([2]; mouse 4): 2
Colon length ([2]; mouse 5): 9.2 cm
Colon weight ([2]; mouse 5): 607 mg
Macroscopic score for colon (0-8) ([2]; mouse 5): 1
Colon length ([2]; mouse 6): 8.9 cm
Colon weight ([2]; mouse 6): 632 mg
Macroscopic score for colon (0-8) ([2]; mouse 6): 1
Colon length ([2]; mouse 7): 9.6 cm
Colon weight ([2]; mouse 7): 612 mg
Macroscopic score for colon (0-8) ([2]; mouse 7): 0
Colon length ([2]; mouse 8): 9.1 cm
Colon weight ([2]; mouse 8): 635 mg
Macroscopic score for colon (0-8) ([2]; mouse 8): 1
